{"source": "patent US7312236B2", "about": "“Substituted (4-aminocyclohexen-1-yl)phenyl and (4-aminocyclohexen-1-yl)pyridinyl compounds as 5-HT1F agonists” (Eli Lilly and Company, priority 2004, dated 2007)", "key": {"[1]": {"system": "dural protein extravasation", "assay": "Dural protein extravasation assay (trigeminal ganglion stimulation)", "design": "species or system rats or guinea pigs", "details": "in vivo", "method": "The inhibition of dural protein extravasation is a functional assay for the neuronal mechanism of migraine. A compound's ability to inhibit dural protein extravasation can be tested as described in the following assay.\nAnesthetize Harlan Sprague-Dawley rats (225-325 g) or guinea pigs from Charles River Laboratories (225-325 g) with sodium pentobarbital (intraperitoneal injection, 65 mg/kg or 45 mg/kg, respectively). For each animal, place the animal in a stereotaxic frame (David Kopf Instruments) with the incisor bar set at −3.5 mm for rats or −4.0 mm for guinea pigs. […]\nQuantify the amount of Evans Blue dye in each sample using a fluorescence microscope (Zeiss) equipped with a grating monochronomator, a spectrophotometer, a computer-driven motorized stage, and an interface to a personal computer. For each dural membrane sample, measure fluorescence at 25 points (500 μm steps covering a 2.5×2.5 mm square area) using an excitation wavelength of approximately 535 nm and measuring the emission intensity at a wavelength of 600 nm. Determined the mean and standard deviation of these measurements. […]"}, "[2]": {"system": "rabbit saphenous vein", "assay": "Rabbit saphenous vein contraction", "details": "Oryctolagus cuniculus", "method": "Bend the tips of two 30-gauge stainless steel hypodermic needles into an L-shape and slip them into the lumen of the polyethylene tubing. Gently push vein tissue from the cannula onto the needles. Separate the needles and attach the lower needle with thread to a stationary glass rod and the upper needle with thread to a force transducer (Statham UC-3). Mount the tissues in organ baths containing 10 mL of modified Krebs' solution. Maintain tissue bath solutions at 37° C. and […] […] Apply an initial optimum resting force of 4 grams to the vein tissue. Record isometric contractions as changes in grams of force on a Beckman Dynograph with Statham UC-3 transducers and microscale accessory attachments. […] Flush the bath, allow the tissue to re-equilibrate under a 4 gram force, add test compound and record the force of contraction. Add additional compound to achieve the next concentration in a range of compound concentrations to generate cumulative agonist concentration-response curves for each test compound. Tissues can be used to generate up to two agonist concentration-response curves. […] Two important parameters can be measured with this vasoconstriction assay, saphenous vein contraction (EC50) and maximal contraction as a percentage of the maximal KCl response (%max KCl)."}}, "data": [{"molecule": "CNS(=O)(=O)Cc1ccc2[nH]cc(CCN(C)C)c2c1", "note": "[sumatriptan]", "values": [{"measurement": "extravasation inhibition ID50", "setting": "[1]", "value": "2.6e-08", "unit": "mmol/kg"}, {"measurement": "EC50", "setting": "[2]", "value": 660, "unit": "nM"}]}]}
